From patent US11865098B1, “Methods and compositions for treating excessive sleepiness” (Axsome Malta Ltd., priority 2017, dated 2024) come the findings set out here.

SMILES strings stand for the structures.

In this assay the test system is adult patients with OSA and ES. Description: ESS, 12-week placebo-controlled parallel study in OSA. The assay is classed as in vivo, human. As to conditions: 37.5, 75, 150, 300 mg; week 12. Here is the method:
The ESS is a subjective sleepiness test that is well known in the art and routinely used to measure the sleepiness level of a subject. The scale is intended to measure daytime sleepiness through the use of a short questionnaire that asks the subject to rate his or her probability of falling asleep on a scale of increasing probability from 0 to 3 for eight different situations that most people engage in during their daily lives. The scores for the eight questions are added together to obtain a single number that estimates the subject's average sleep propensity (ASP). […]
The study was a 12-week, double-blind, placebo-controlled, parallel design study as described in greater detail in Example 1 (Schweitzer et al., Sleep 40(Abstract Supplement):A237. Abstract 0641 (2017)). […] The Functional Outcomes of Sleep questionnaire short version (FOSQ-10) (Chasens et al., Sleep 32(7):915 (2009)) evaluated the effects of ES on functioning. The Work Productivity and Activity Impairment questionnaire for Specific Health Problems (WPAI:SHP) (Reilly et al., Pharmacoeconomics 4(5):353 (1993); Reilly, Work Productivity and Activity Impairment Questionnaire: Specific Health Problem V2.0 (WPAI: SHP). www.reillyassociates.net/WPAI_SHP) evaluated work productivity impairment among employed patients and overall activity impairment outside of work among all patients for the past 7 days. […]

Consider `NC(=O)OC[C@H](N)Cc1ccccc1` [JZP-110, (R)-2-amino-3-phenylpropyl carbamate], for which the “Co-primary ESS endpoint” value is “met at all doses”.
